In ChEMBL document CHEMBL3885861, “Open TG-GATES”:

Organism: Rattus norvegicus
Assay: Open TG-GATES - Regimen: Single
Assay type: toxicity, organism-based, Sprague-Dawley
Design: regimen Single, gender Male, age 6 weeks
Details: in vivo, po, 5 mg/kg, route gavage, dose level Low; for APTT / Bas / Eos / Fbg / Hb / Ht / Lym / MCH / MCHC / MCV / Mono / Neu / PT / Plat / RBC / Ret / WBC: tissue Blood; for KIDNEY_L / KIDNEY_R / KIDNEY_TOTAL: tissue Kidney; for LIVER: tissue Liver; for A/G / ALP / ALT / AST / BUN / CRE / Ca / Cl / DBIL / GLC / IP / K / LDH / Na / PL / RALB / TBIL / TC / TG / TP / gamma-GTP: tissue Plasma

CC(=N)S [THIOACETAMIDE] was tested, and the TERMINAL_BW (3 h) was 189.9 g, the APTT (3 h) was 17.2 s and the Bas (3 h) was 0%. For the same molecule, the Eos (3 h) was 0.6%, the Fbg (3 h) was 225 mg/dL and the Hb (3 h) was 13.1 g/dL. It also gave a Ht (3 h) of 39.7%, a Lym (3 h) of 81.4% and an MCH (3 h) of 21.3 pg. The MCHC (3 h) was 32.9%, the MCV (3 h) was 64.6 fL and the Mono (3 h) was 6.4%. The Neu (3 h) was 11.4%, the PT (3 h) was 12.1 s and the Plat (3 h) was 105.8 x10_4/uL. The RBC (3 h) was 614.6 x10_4/ul, the Ret (3 h) was 9.2% and the WBC (3 h) was 119.1 x10_2/uL. For the same molecule, the KIDNEY_L (3 h) was 0.9 g, the KIDNEY_R (3 h) was 0.9 g and the KIDNEY_TOTAL (3 h) was 1.7 g. For the same molecule, the LIVER (3 h) was 8.7 g, the A/G (3 h) was 2.1 and the ALP (3 h) was 842.8 IU/L. It also gave an ALT (3 h) of 31.2 IU/L, an AST (3 h) of 64 IU/L and a BUN (3 h) of 12.2 mg/dL. It also gave a CRE (3 h) of 0.5 mg/dL, a Ca (3 h) of 10.9 mg/dL and a Cl (3 h) of 103.4 meq/L. The DBIL (3 h) was 0 mg/dL, the GLC (3 h) was 179.8 mg/dL and the IP (3 h) was 9.2 mg/dL. The K (3 h) was 4.4 meq/L, the LDH (3 h) was 97.6 IU/L and the Na (3 h) was 138.2 meq/L. It also gave a PL (3 h) of 149.6 mg/dL, an RALB (3 h) of 3.8 g/dL and a TBIL (3 h) of 0.3 mg/dL. It also gave a TC (3 h) of 85.8 mg/dL, a TG (3 h) of 70.6 mg/dL and a TP (3 h) of 5.6 g/dL. The gamma-GTP (3 h) was 2 IU/L, the TERMINAL_BW (6 h) was 185.4 g and the APTT (6 h) was 17.8 s. For the same molecule, the Bas (6 h) was 0%, the Eos (6 h) was 1% and the Fbg (6 h) was 237.8 mg/dL. The Hb (6 h) was 13.2 g/dL, the Ht (6 h) was 40.2% and the Lym (6 h) was 70.4%. It also gave an MCH (6 h) of 21.2 pg, an MCHC (6 h) of 32.9% and an MCV (6 h) of 64.4 fL. The Mono (6 h) was 9.4%, the Neu (6 h) was 19% and the PT (6 h) was 12.4 s. It also gave a Plat (6 h) of 113.6 x10_4/uL, an RBC (6 h) of 625.4 x10_4/ul and a Ret (6 h) of 9.1%. For the same molecule, the WBC (6 h) was 94.9 x10_2/uL, the KIDNEY_L (6 h) was 0.9 g and the KIDNEY_R (6 h) was 0.9 g. For the same molecule, the KIDNEY_TOTAL (6 h) was 1.8 g, the LIVER (6 h) was 8.2 g and the A/G (6 h) was 2.2. The ALP (6 h) was 729.4 IU/L, the ALT (6 h) was 29.8 IU/L and the AST (6 h) was 62.4 IU/L. The BUN (6 h) was 10.2 mg/dL, the CRE (6 h) was 0.6 mg/dL and the Ca (6 h) was 10.4 mg/dL. It also gave a Cl (6 h) of 104.4 meq/L, a DBIL (6 h) of 0.002 mg/dL and a GLC (6 h) of 179.6 mg/dL. The IP (6 h) was 9 mg/dL, the K (6 h) was 4.9 meq/L and the LDH (6 h) was 76 IU/L. The Na (6 h) was 137.2 meq/L, the PL (6 h) was 132.2 mg/dL and the RALB (6 h) was 3.8 g/dL. For the same molecule, the TBIL (6 h) was 0.4 mg/dL, the TC (6 h) was 80.2 mg/dL and the TG (6 h) was 41.4 mg/dL. The TP (6 h) was 5.6 g/dL, the gamma-GTP (6 h) was 1.2 IU/L and the TERMINAL_BW (9 h) was 186.4 g. For the same molecule, the APTT (9 h) was 16.8 s, the Bas (9 h) was 0% and the Eos (9 h) was 0.6%. For the same molecule, the Fbg (9 h) was 216.2 mg/dL, the Hb (9 h) was 12.8 g/dL and the Ht (9 h) was 39.3%. The Lym (9 h) was 79.2%, the MCH (9 h) was 21.2 pg and the MCHC (9 h) was 32.5%. For the same molecule, the MCV (9 h) was 65.1 fL, the Mono (9 h) was 6.2% and the Neu (9 h) was 13.8%. For the same molecule, the PT (9 h) was 12.3 s, the Plat (9 h) was 102.7 x10_4/uL and the RBC (9 h) was 606 x10_4/ul. It also gave a Ret (9 h) of 9.4%, a WBC (9 h) of 94.1 x10_2/uL and a KIDNEY_L (9 h) of 0.9 g. For the same molecule, the KIDNEY_R (9 h) was 0.9 g, the KIDNEY_TOTAL (9 h) was 1.7 g and the LIVER (9 h) was 7.8 g. For the same molecule, the A/G (9 h) was 2.3, the ALP (9 h) was 794.4 IU/L and the ALT (9 h) was 32 IU/L. For the same molecule, the AST (9 h) was 61.6 IU/L, the BUN (9 h) was 11.6 mg/dL and the CRE (9 h) was 0.5 mg/dL. The Ca (9 h) was 10.3 mg/dL, the Cl (9 h) was 103.8 meq/L and the DBIL (9 h) was 0.01 mg/dL. For the same molecule, the GLC (9 h) was 180 mg/dL, the IP (9 h) was 9.8 mg/dL and the K (9 h) was 4.4 meq/L. The LDH (9 h) was 78.4 IU/L, the Na (9 h) was 137.4 meq/L and the PL (9 h) was 138.6 mg/dL. For the same molecule, the RALB (9 h) was 3.8 g/dL, the TBIL (9 h) was 0.4 mg/dL and the TC (9 h) was 84.4 mg/dL. For the same molecule, the TG (9 h) was 35.4 mg/dL, the TP (9 h) was 5.5 g/dL and the gamma-GTP (9 h) was 1.6 IU/L. The TERMINAL_BW (24 h) was 198.9 g, the APTT (24 h) was 16.7 s and the Bas (24 h) was 0%. The Eos (24 h) was 0.8%, the Fbg (24 h) was 219.6 mg/dL and the Hb (24 h) was 13.3 g/dL. The Ht (24 h) was 40.1%, the Lym (24 h) was 78.6% and the MCH (24 h) was 22 pg. It also gave an MCHC (24 h) of 33.2%, an MCV (24 h) of 66.3 fL and a Mono (24 h) of 9.4%. It also gave a Neu (24 h) of 11.4%, a PT (24 h) of 12.3 s and a Plat (24 h) of 102.8 x10_4/uL. For the same molecule, the RBC (24 h) was 606.4 x10_4/ul, the Ret (24 h) was 8.7% and the WBC (24 h) was 127.7 x10_2/uL. It also gave a KIDNEY_L (24 h) of 0.9 g, a KIDNEY_R (24 h) of 0.9 g and a KIDNEY_TOTAL (24 h) of 1.8 g. The LIVER (24 h) was 9.7 g, the A/G (24 h) was 2.1 and the ALP (24 h) was 891 IU/L. For the same molecule, the ALT (24 h) was 38.8 IU/L, the AST (24 h) was 68.6 IU/L and the BUN (24 h) was 17 mg/dL. It also gave a CRE (24 h) of 0.5 mg/dL, a Ca (24 h) of 10.6 mg/dL and a Cl (24 h) of 103.8 meq/L. The DBIL (24 h) was 0.01 mg/dL, the GLC (24 h) was 179.6 mg/dL and the IP (24 h) was 7.6 mg/dL. It also gave a K (24 h) of 5.3 meq/L, an LDH (24 h) of 84.2 IU/L and a Na (24 h) of 136.6 meq/L. The PL (24 h) was 157.6 mg/dL, the RALB (24 h) was 3.9 g/dL and the TBIL (24 h) was 0.3 mg/dL. It also gave a TC (24 h) of 85.6 mg/dL, a TG (24 h) of 110.8 mg/dL and a TP (24 h) of 5.8 g/dL. The gamma-GTP (24 h) was 1.6 IU/L.
